Measurements as given in US9732094B2, “Arylquinazolines” (Merck Patent GmbH, priority 2013, dated 2017).
Where two headings read alike, the source gives them in different places.

What was measured:
DNA-PK = DNA-PK (Homo sapiens (Human), UniProt P78527); test: DNA-PK assay (biochemical), flashplate 33P-ATP kinase assay; details: enzymatic; 5 μM ATP
In short: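 Radiometric kinase reaction in streptavidin-coated flashplates, stopped with 200 mM EDTA, then 30 min room-temperature incubation and saline washes.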

[1] = molecular target: DNA-PK phosphorylation at serine 2056 (Homo sapiens (Human), UniProt P78527); test: DNA-PK phosphorylation at serine 2056 (cellular), bleomycin-treated HCT116 cells, ELISA; assay type: cell-based; details: cellular; HCT116 cells, 10 μM bleomycin, six hours; read-out: IC50 pDNA-PK
In short: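 After overnight seeding, HCT116 cells received compound with 10 μM bleomycin for 6 h; phospho-DNA-PK ELISA signals were scaled to total DNA-PKcs, DMSO serving as blank.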

Kv11.1 (hERG) = Kv11.1 (hERG) (Homo sapiens (Human), UniProt Q12809); test: Kv11.1 (hERG) ion channel activity (patch clamp assay), HEK293 cells transfected with hERG gene; details: patch clamp, HEK293 transfected with hERG gene
Sequence of Kv11.1 (hERG) (Q12809 whole entry): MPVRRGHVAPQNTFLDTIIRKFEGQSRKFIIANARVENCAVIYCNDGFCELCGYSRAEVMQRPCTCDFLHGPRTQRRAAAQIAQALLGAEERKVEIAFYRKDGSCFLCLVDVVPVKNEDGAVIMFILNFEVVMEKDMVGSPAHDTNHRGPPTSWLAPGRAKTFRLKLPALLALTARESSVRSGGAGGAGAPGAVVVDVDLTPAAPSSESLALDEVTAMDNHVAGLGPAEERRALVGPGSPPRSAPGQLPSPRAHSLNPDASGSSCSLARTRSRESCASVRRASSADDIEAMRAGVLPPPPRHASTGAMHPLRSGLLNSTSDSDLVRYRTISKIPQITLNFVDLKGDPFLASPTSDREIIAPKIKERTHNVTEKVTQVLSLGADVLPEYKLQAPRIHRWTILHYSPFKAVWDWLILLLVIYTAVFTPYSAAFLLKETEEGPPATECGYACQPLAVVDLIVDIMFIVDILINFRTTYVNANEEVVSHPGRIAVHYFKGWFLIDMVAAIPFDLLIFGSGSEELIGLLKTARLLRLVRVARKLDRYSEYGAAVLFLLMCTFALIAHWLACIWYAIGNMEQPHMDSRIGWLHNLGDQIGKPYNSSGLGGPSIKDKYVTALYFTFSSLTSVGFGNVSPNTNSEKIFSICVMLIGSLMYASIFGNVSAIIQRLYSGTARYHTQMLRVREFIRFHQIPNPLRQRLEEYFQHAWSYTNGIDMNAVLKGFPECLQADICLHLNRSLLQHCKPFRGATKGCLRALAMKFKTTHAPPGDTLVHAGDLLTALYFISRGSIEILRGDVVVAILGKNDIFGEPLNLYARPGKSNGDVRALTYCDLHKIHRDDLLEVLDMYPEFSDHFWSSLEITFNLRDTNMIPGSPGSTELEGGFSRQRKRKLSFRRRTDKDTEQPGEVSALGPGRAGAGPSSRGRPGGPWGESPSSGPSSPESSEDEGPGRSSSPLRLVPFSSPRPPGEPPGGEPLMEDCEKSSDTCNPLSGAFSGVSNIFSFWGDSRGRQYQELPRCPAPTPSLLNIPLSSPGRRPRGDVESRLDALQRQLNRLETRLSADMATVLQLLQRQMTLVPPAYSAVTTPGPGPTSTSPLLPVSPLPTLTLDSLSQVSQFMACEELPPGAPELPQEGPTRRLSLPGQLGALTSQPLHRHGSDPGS

Row | SMILES | IC50 (DNA-PK) | IC50 [1] | Ki (Kv11.1 (hERG); read-out: Ki [Kv1.11 hERG]) | Ki (Kv11.1 (hERG); human, HEK293 cells stably transfected with the hERG gene, Ki [Kv1.11 hERG]) | Ki (Kv11.1 (hERG); Ki [Kv1.11 hERG])
1 | Cc1nccnc1[C@@H](O)c1ccc(F)c(-c2ncnc3cc(N4CCOCC4)ccc23)c1 [Example 82] | 7 to 30 nM | 500 to 5000 nM | > 25000 nM | – | –
2 | Cc1nccnc1[C@H](O)c1ccc(F)c(-c2ncnc3cc(N4CCOCC4)ccc23)c1 [Example 83, (R)-[4-Fluoro-3-(7-morpholin-4-yl-quinazolin-4-yl)-phenyl]-(3-methyl-pyrazin-2-yl)methanol] | < 3 nM | < 500 nM | > 25000 nM | – | –
3 | NCCn1nc(C(O)c2cc(-c3ncnc4cc(N5CCOCC5)ccc34)c(F)cc2Cl)ccc1=O (stereo not drawn) [Example 94, 2-(2-Amino-ethyl)-6-{[2-Chloro-4-fluoro-5-(7-morpholin-4-yl-quinazolin-4-yl)phenyl]-hydroxymethyl}-2H-pyridazin-3-one] | 7 to 30 nM | 10000 to 30000 nM | > 25000 nM | – | –
4 | O=c1ccc(C(O)c2cc(-c3ncnc4cc(N5CCOCC5)ccc34)c(F)cc2Cl)nn1C1CC1 (stereo not drawn) [Example 95, 6-{[2-Chloro-4-fluoro-5-(7-morpholin-4-yl-quinazolin-4-yl)phenyl]-hydroxymethyl}-2-cyclopropyl-2H-pyridazin-3-one] | 7 to 30 nM | 500 to 5000 nM | > 25000 nM | – | –
5 | CCn1nc(C(O)c2cc(-c3ncnc4cc(N5CCOCC5)ccc34)c(F)cc2Cl)ccc1=O (stereo not drawn) [Example 96, 6{[2-Chloro-4-fluoro-5-(7-morpholin-4-yl-quinazolin-4-yl)phenyl]-hydroxymethyl}-2-ethyl-2H-pyridazin-3-one] | 7 to 30 nM | 500 to 5000 nM | > 25000 nM | – | –
6 | NC(=O)Cn1nc(C(O)c2cc(-c3ncnc4cc(N5CCOCC5)ccc34)c(F)cc2Cl)ccc1=O (stereo not drawn) [Example 98, 2-{3-{[2-Chloro-4-fluoro-5-(7-morpholin-4-ylquinazolin-4-yl)-phenyl]hydroxymethyl}-6-oxo-6H-pyridazin-1-yl)acetamide] | 3 to 7 nM | 10000 to 30000 nM | > 25000 nM | – | –
7 | O=c1ccc(C(O)c2cc(-c3ncnc4cc(N5CCOCC5)ccc34)c(F)cc2Cl)nn1CCO (stereo not drawn) [Example 99, 6-{[2-Chloro-4-fluoro-5-(7-morpholin-4-yl-quinazolin-4-yl)phenyl]-hydroxymethyl}-2-(2-hydroxy-ethyl)-2H-pyridazin-3-one] | 3 to 7 nM | 500 to 5000 nM | > 25000 nM | – | –
8 | OCCOc1nccnc1C(O)c1ccc(F)c(-c2ncnc3cc(N4CCOCC4)ccc23)c1 (stereo not drawn) [Example 105, 2-(3-{[4-fluoro-3-(7-morpholin-4-yl-quinazolin-4-yl)-phenyl]hydroxy-methyl}pyrazin-2-yl-oxy)ethanol] | 7 to 30 nM | 10000 to 30000 nM | > 25000 nM | – | –
9 | OCCNc1nccnc1C(O)c1ccc(F)c(-c2ncnc3cc(N4CCOCC4)ccc23)c1 (stereo not drawn) [Example 106, 2-(3-{[4-fluoro-3-(7-morpholin-4-yl-quinazolin-4-yl)-phenyl]hydroxy-methyl}pyrazin-2-yl-amino)ethanol] | 7 to 30 nM | 5000 to 10000 nM | – | – | 15000 to 25000 nM
10 | N#CCCOc1ccc(C(O)c2cc(-c3ncnc4cc(N5CCOCC5)ccc34)c(F)cc2Cl)nn1 (stereo not drawn) [Example 107, 3-(6-{[2-Chloro-4-fluoro-5-(7-morpholin-4-yl-quinazolin-4-yl)-phenyl]hydroxy-methyl}pyridazin-3-yl-oxy)propionitrile] | 3 to 7 nM | 500 to 5000 nM | > 25000 nM | – | –
11 | CSc1ccc(C(O)c2cc(-c3ncnc4cc(N5CCOCC5)ccc34)c(F)cc2Cl)nn1 (stereo not drawn) [Example 108, [2-Chloro-4-fluoro-5-(7-morpholin-4-yl-quinazolin-4-yl)-phenyl]-(6-methyl-sulfanylpyridazin-3-yl)methanol] | 3 to 7 nM | < 500 nM | – | – | 15000 to 25000 nM
12 | COc1cc(C)c(C(O)c2cc(-c3ncnc4cc(N5CCOCC5)ccc34)c(F)cc2Cl)nn1 (stereo not drawn) [Example 109, [2-Chloro-4-fluoro-5-(7-morpholin-4-yl-quinazolin-4-yl)-phenyl]-(6-methoxy-4-methylpyridazin-3-yl)methanol] | > 30 nM | 5000 to 10000 nM | > 25000 nM | – | –
13 | COc1nnc(C(O)c2cc(-c3ncnc4cc(N5CCOCC5)ccc34)c(F)cc2Cl)cc1C (stereo not drawn) [Example 110, [2-Chloro-4-fluoro-5-(7-morpholin-4-yl-quinazolin-4-yl)-phenyl]-(6-methoxy-5-methylpyridazin-3-yl)methanol] | 7 to 30 nM | 500 to 5000 nM | – | – | 10000 to 15000 nM
14 | NC(=O)COc1ccc(C(O)c2cc(-c3ncnc4cc(N5CCOCC5)ccc34)c(F)cc2Cl)nn1 (stereo not drawn) [Example 111, 2-(6-{[2-Chloro-4-fluoro-5-(7-morpholin-4-yl-quinazolin-4-yl)-phenyl]hydroxy-methyl}pyridazin-3-yloxy)acetamide] | 3 to 7 nM | 5000 to 10000 nM | > 25000 nM | – | –
15 | O=C(O)COc1ccc(C(O)c2cc(-c3ncnc4cc(N5CCOCC5)ccc34)c(F)cc2Cl)nn1 (stereo not drawn) [Example 113, (6-{[2-Chloro-4-fluoro-5-(7-morpholin-4-yl-quinazolin-4-yl)-phenyl]hydroxy-methyl}pyridazin-3-yl-oxy)acetic acid] | 3 to 7 nM | 10000 to 30000 nM | > 25000 nM | – | –

More lines, main results first:

Row | IC50 (DNA-PK) | IC50 [1] | SMILES | Ki (Kv11.1 (hERG); read-out: Ki [Kv1.11 hERG]) | Ki (Kv11.1 (hERG); human, HEK293 cells stably transfected with the hERG gene, Ki [Kv1.11 hERG]) | Ki (Kv11.1 (hERG); Ki [Kv1.11 hERG])
16 | 3 to 7 nM | 500 to 5000 nM | OC(c1ccc(F)c(-c2ncnc3cc(N4CCOCC4)ccc23)c1)c1ncccc1C(F)(F)F (stereo not drawn) [Example 80, [4-Fluoro-3-(7-morpholin-4-yl-quinazolin-4-yl)-phenyl]-(3-trifluoro-methylpyridin-2-yl)-methanol] | > 25000 nM | – | –
17 | < 3 nM | < 500 nM | OC(c1ccc(F)c(-c2ncnc3cc(N4CCOCC4)ccc23)c1)c1ncccc1OC(F)F (stereo not drawn) [Example 81, (3-Difluoromethoxy-pyridin-2-yl)-[4-fluoro-3-(7-morpholin-4-yl-quinazolin-4-yl)-phenyl]methanol] | > 25000 nM | – | –
18 | 3 to 7 nM | < 500 nM | Cc1nccnc1[C@H](O)c1cc(-c2ncnc3cc(N4CCOCC4)ccc23)c(F)cc1F [Example 84, [2,4-Difluoro-5-(7-morpholin-4-yl-quinazolin-4-yl)-phenyl]-(3-methyl-pyrazin-2-yl)methanol] | – | 15000 to 25000 nM | –
19 | < 3 nM | < 500 nM | Cc1nccnc1C(O)c1cc(-c2ncnc3cc(N4CCOCC4)ccc23)c(F)cc1F (stereo not drawn) [Example 86] | > 25000 nM | – | –
20 | < 3 nM | < 500 nM | COc1cncnc1C(O)c1ccc(F)c(-c2ncnc3cc(N4CCOCC4)ccc23)c1 (stereo not drawn) [Example 87, [4-Fluoro-3-(7-morpholin-4-yl-quinazolin-4-yl)-phenyl]-(5-methoxy-pyrimidin-4-yl)-methanol] | – | – | 15000 to 25000 nM
21 | < 3 nM | < 500 nM | Cc1cnc(C)c(C(O)c2cc(-c3ncnc4cc(N5CCOCC5)ccc34)c(F)cc2F)n1 (stereo not drawn) [Example 88] | – | – | 15000 to 25000 nM
22 | 3 to 7 nM | < 500 nM | OC(c1cc(-c2ncnc3cc(N4CCOCC4)ccc23)ccc1Cl)c1ncnc2ccsc12 (stereo not drawn) [Example 89, [2-Chloro-5-(7-morpholin-4-yl-quinazolin-4-yl)-phenyl]thieno[3,2-d}-pyrimidin-4-ylmethanol] | – | – | 10000 to 15000 nM
23 | < 3 nM | < 500 nM | OC(c1cc(-c2ncnc3cc(N4CCOCC4)ccc23)c(F)cc1F)c1ncnc2sccc12 (stereo not drawn) [Example 90, [2,4-Difluoro-5-(7-morpholin-4-yl-quinazolin-4-yl)-phenyl]thieno[2,3-d}-pyrimidin-4-ylmethanol] | > 25000 nM | – | –
24 | < 3 nM | < 500 nM | Cn1c(C(O)c2ccc(F)c(-c3ncnc4cc(N5CCOCC5)ccc34)c2)cccc1=O (stereo not drawn) [Example 91, 6-{[4-Fluoro-3-(7-morpholin-4-yl-quinazolin-4-yl)-phenyl]hydroxy-methyl}-1-methyl-1H-pyridin-2-one] | > 25000 nM | – | –
25 | < 3 nM | < 500 nM | O=c1ccc(C(O)c2cc(-c3ncnc4cc(N5CCOCC5)ccc34)c(F)cc2Cl)n[nH]1 (stereo not drawn) [Example 92, 3-[[2-Chloro-4-fluoro-5-(7-morpholino-quinazolin-4-yl)phenyl]-hydroxymethyl]-1H-pyridazin-6-one] | > 25000 nM | – | –
26 | 3 to 7 nM | < 500 nM | CCn1nc(C(O)c2cc(-c3ncnc4cc(N5CCOCC5)ccc34)c(F)cc2Cl)ccc1=O (stereo not drawn) [Example 93, 6-{[2-Chloro-4-fluoro-5-(7-morpholin-4-yl-quinazolin-4-y1)phenyl]-hydroxymethyl}-2-ethyl-2H-pyridazin-3-one] | – | – | 10000 to 15000 nM
27 | < 3 nM | 500 to 5000 nM | CCn1nc(C(O)c2cc(-c3ncnc4cc(N5CCOCC5)ccc34)c(F)cc2Cl)ccc1=O (stereo not drawn) [Example 97, 6-{[2-Chloro-4-fluoro-5-(7-morphohn-4-yl-quinazolin-4-yl)phenyl]-hydroxymethyl}-2-ethyl-2H-pyridazin-3-one] | > 25000 nM | – | –
28 | < 3 nM | < 500 nM | CC(C#N)Oc1ccc(C(O)c2cc(-c3ncnc4cc(N5CCOCC5)ccc34)c(F)cc2Cl)nn1 (stereo not drawn) [Example 101, 2-(6-{[2-Chloro-4-fluoro-5-(7-morpholin-4-yl-quinazolin-4-yl)-phenyl)hydroxy-methyl}pyridazin-3-yloxy)propionitrile] | – | – | 10000 to 15000 nM
29 | < 3 nM | 500 to 5000 nM | COCCOc1ccc(C(O)c2cc(-c3ncnc4cc(N5CCOCC5)ccc34)c(F)cc2Cl)nn1 (stereo not drawn) [Example 112, [2-Chloro-4-fluoro-5-(7-morpholin-4-yl-quinazolin-4-yl)-phenyl]-[6-(2-methoxyethoxy)-pyridazin-3-yl]-methanol] | – | – | 15000 to 25000 nM
